Laboratory results reported in patent US20260159520A1, “HETEROBIFUNCTIONAL COMPOUNDS AND METHODS OF TREATING DISEASE” (Halda Therapeutics OpCo, Inc., priority 2022, published 2026).

Tests used:
VCaP cells = assay: Cellular growth inhibition assay for VCaP cells; assay type: cell-based; settings: Homo sapiens, 72 hours, CellTiter-Glo 2.0
[1] = tested on: T-Rex 293 cell line SC3 cells lacking increased expression of androgen receptor protein; assay: Cellular growth inhibition, T-Rex 293 SC3 cells without doxycycline; assay type: cell-based; settings: not exposed to doxycycline, 72 hours, CellTiter-Glo 2.0
In short: (§1)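 Growth inhibition is measured in an inducible AR-expressing T-Rex 293 clone, SC3, cultured with or without 10 ng/mL doxycycline in hormone-depleted medium. Test compounds are applied for 72 hours. GI50 values derive from CellTiter-Glo 2.0 signal fitted by four-parameter regression.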

[2] = tested on: T-Rex 293 cell line SC3 cells having increased expression of androgen receptor protein; assay: Cellular growth inhibition, T-Rex 293 SC3 cells with doxycycline (increased androgen receptor expression); assay type: cell-based; settings: with 10 ng/mL doxycycline (increased androgen receptor), 72 hours, CellTiter-Glo 2.0
In short: as §1

androgen receptor = target: T1, androgen receptor (Homo sapiens, UniProt P10275); assay: Binding affinity to androgen receptor ([3H]methyltrienolone radioligand, cell cytosol); settings: Table 6
T1 construct: endogenous in cells; host or cells: unnamed cells (cytosol fraction)
T1 sequence (P10275 1-920): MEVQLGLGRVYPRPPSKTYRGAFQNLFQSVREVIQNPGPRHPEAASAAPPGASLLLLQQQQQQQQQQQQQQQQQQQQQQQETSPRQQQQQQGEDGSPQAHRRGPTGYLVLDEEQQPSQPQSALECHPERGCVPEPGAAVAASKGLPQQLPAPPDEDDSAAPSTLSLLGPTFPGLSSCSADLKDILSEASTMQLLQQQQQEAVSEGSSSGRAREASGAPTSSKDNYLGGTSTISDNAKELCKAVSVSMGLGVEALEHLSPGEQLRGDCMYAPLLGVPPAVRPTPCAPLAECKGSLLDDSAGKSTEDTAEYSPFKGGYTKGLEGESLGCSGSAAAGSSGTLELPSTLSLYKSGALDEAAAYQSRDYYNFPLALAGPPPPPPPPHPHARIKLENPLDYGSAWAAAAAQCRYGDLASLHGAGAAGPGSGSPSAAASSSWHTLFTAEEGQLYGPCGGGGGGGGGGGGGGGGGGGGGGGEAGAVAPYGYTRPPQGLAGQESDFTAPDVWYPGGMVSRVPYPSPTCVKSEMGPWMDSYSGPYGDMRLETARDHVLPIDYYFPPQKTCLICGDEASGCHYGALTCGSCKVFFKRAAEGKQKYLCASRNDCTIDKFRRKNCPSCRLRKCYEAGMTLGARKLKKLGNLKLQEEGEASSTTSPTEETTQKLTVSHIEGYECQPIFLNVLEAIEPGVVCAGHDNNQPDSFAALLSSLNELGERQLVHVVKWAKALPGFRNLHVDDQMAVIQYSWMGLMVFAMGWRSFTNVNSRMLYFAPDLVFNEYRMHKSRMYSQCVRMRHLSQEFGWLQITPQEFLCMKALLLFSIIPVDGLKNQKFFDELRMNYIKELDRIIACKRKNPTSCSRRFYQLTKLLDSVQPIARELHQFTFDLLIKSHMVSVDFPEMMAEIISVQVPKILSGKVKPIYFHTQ
Method: Fractions of cell cytosol ([…]) were incubated for 24 hr at 4° C. with 1 nM [^3H]methyltrienolone in the absence or presence of the test compound in a buffer containing 25 mM Hepes-Tris (pH 7.4), 1 mM EDTA, 10 mM Na2MoO4, 2 mM DTT, 5 μM triamcinolone acetonide, and 10% glycerol. Nonspecific binding was determined in the presence of 1 μM testosterone. Following incubation, the samples were filtered rapidly under vacuum through glass fiber filters (GF/B, Packard) presoaked with 0.3% PEI and rinsed several times with ice-cold 50 mM Tris-HCl using a 96-sample cell harvester (Unifilter, Packard). The filters were dried then counted for radioactivity in a scintillation counter (Topcount, Packard) using a scintillation cocktail (Microscint 0, Packard). The results are expressed as a percent inhibition of the control radioligand specific binding. The standard reference compound is testosterone, which is tested in each experiment at several concentrations to obtain a competition curve from which its IC50 is calculated.

[3] = tested on: T-Rex 293 cell line SC cells having increased expression of progesterone receptor isoform B protein; assay: Cellular growth inhibition, T-Rex 293 SC cells with doxycycline (increased progesterone receptor isoform B expression); assay type: cell-based; settings: with 10 ng/mL doxycycline (increased progesterone receptor isoform B), 72 hours, CellTiter-Glo 2.0
Method: (§2) The following types of cells were prepared for this experiment: (i) a T-Rex 293 cell line having increased expression of progesterone receptor isoform B protein due to exposure to doxycycline and (ii) a T-Rex 293 cell line lacking increased expression of progesterone receptor isoform B protein. Ability of the test compounds to inhibit proliferation of the foregoing cell types was evaluated according to the procedures set forth below.
(§3) The doxycycline-inducible progesterone receptor isoform B protein expressing cell line was established using the following protocol: T-Rex 293 cells were purchased from Invitrogen (Cat #R71007) and transfected using Lipofectamine 2000 with the wild-type progesterone receptor B protein sequence cloned into the pcDNA4/TO vector. Transfected cells were selected using 400 μg/mL Zeocin (Invitrogen Cat #R25001). Following selection, single clones were raised and maintained in Dulbecco's Modified Eagle Medium (DMEM) supplemented with 10% w/w Tetracycline-free fetal bovine serum (FBS) and 250 μg/mL Zeocin. Clones were analyzed for expression of progesterone receptor isoform B protein in the presence and absence of 10 ng/mL doxycycline (Sigma Cat #D9891), and a single doxycycline-inducible clone (hereinafter “SC”) was selected for use in downstream assays.
(§4) The SC cells were seeded on poly-D-lysine coated, black clear-bottom 384-well plates at 2500/well, in 25 μL Phenol Red Free Dulbecco's Modified Eagle Medium (DMEM) supplemented with 10% w/w charcoal-dextran treated fetal bovine serum (FBS) and 1% w/w pen-strep, with or without 10 ng/mL doxycycline. Pen-Strep is a commercially available mixture of penicillin G and streptomycin, which is used in mammalian cell culture media to prevent bacterial contamination. Phenol Red Free Dulbecco's Modified Eagle Medium (DMEM) supplemented with 10% w/w charcoal-dextran treated fetal bovine serum (FBS) and 1% w/w pen-strep, with or without 10 ng/mL doxycycline is herein referred to as Treatment Medium. Following seeding of cells in the plates, the plates were spun at 300×g for 30 seconds, then equilibrated to room temperature for 30 minutes, and then deposited in a humidified tissue culture incubator maintained at 37° C. with 5% CO2.
(§5) At 24 hours after seeding of the cells, dilutions of test compound were prepared in DMSO and dissolved in Treatment Medium, to achieve a final DMSO concentration of 0.5% w/w, thereby providing the Test Compound Solution. A 25 μL aliquot of the Test Compound Solution was added to cells in the well plates. An equal volume of a solution containing DMSO and Treatment Medium was used as a negative control. Following treatment of cells with Test Compound Solution or said equal volume of a solution containing DMSO and Treatment Medium, the plates were spun at 300×g for 30 seconds, and then left in an incubator for 72 hours.
(§6) At the end of the treatment duration, cell viability was quantified with CellTiter-Glo 2.0 reagent (Promega Cat #G9243). For this purpose, plates were equilibrated to room temperature for 30 minutes, and then 25 μL of CellTiter-Glo 2.0 reagent was added to cells in the plate wells. Plates were then agitated on a shaker for two minutes at 500 rpm and subsequently incubated at room temperature for 10 minutes. Following incubation, the plates were spun at 3000×g for 30 seconds, then sealed with an optical adhesive cover, and luminescence readings were measured with an EnVision Plate Reader (Perkin Elmer).
(§7) Data was normalized using zero luminescence for baseline. A four-parameter non-linear regression curve fit was applied to dose-response data in GraphPad Prism data analysis software to determine the half-maximal growth inhibitory concentration (GI50) for each test compound.

[4] = tested on: T-Rex 293 cell line SC cells lacking increased expression of progesterone receptor isoform B protein; assay: Cellular growth inhibition, T-Rex 293 SC cells without doxycycline; assay type: cell-based; settings: not exposed to doxycycline, 72 hours, CellTiter-Glo 2.0
Method: as §2, §3, §4, §5, §6, §7

CDK9 = target: T2, CDK9 (Homo sapiens, UniProt P50750); assay: KdELECT binding assay, CDK9; settings: CDK9, Table 7
T2 construct: made in house; host or cells: E. coli BL21-derived host (T7 phage) or HEK-293 ('BEK-293' [sic])
Method: Compounds were tested using a KdELECT. Kinase-tagged T7 phage strains were prepared in an E. coli host derived from the BL21 strain. E. coli were grown to log-phase and infected with T7 phage and incubated with shaking at 32° C. until lysis. The lysates were centrifuged and filtered to remove cell debris. The remaining kinases were produced in BEK-293 cells and subsequently tagged with DNA for qPCR detection. Streptavidin-coated magnetic beads were treated with biotinylated small molecule ligands for 30 minutes at room temperature to generate affinity resins for kinase assays. The liganded beads were blocked with excess biotin and washed with blocking buffer (SeaBlock (Pierce), 1% BSA, 0.05% Tween 20, 1 mM DTT) to remove unbound ligand and to reduce non-specific binding. Binding reactions were assembled by combining kinases, liganded affinity beads, and test compounds in 1× binding buffer (20% SeaBlock, 0.17×PBS, 0.05% Tween 20, 6 mM DTT). Test compounds were prepared as 111× stocks in 100% DMSO. Kd values were determined using an 11-point 3-fold compound dilution series with three DMSO control points. All compounds for Kd measurements are distributed by acoustic transfer (non-contact dispensing) in 100% DMSO. The compounds were then diluted directly into the assays such that the final concentration of DMSO was 0.9%. All reactions performed in polypropylene 384-well plate. Each was a final volume of 0.02 mL. The assay plates were incubated at room temperature with shaking for 1 hour and the affinity beads were washed with wash buffer (lx PBS, 0.05% Tween 20). The beads were then re-suspended in elution buffer (lx PBS, 0.05% Tween 20, 0.5 μM nonbiotinylated affinity ligand) and incubated at room temperature with shaking for 30 minutes. The kinase concentration in the eluates was measured by qPCR.

T2 sequence (P50750 whole entry): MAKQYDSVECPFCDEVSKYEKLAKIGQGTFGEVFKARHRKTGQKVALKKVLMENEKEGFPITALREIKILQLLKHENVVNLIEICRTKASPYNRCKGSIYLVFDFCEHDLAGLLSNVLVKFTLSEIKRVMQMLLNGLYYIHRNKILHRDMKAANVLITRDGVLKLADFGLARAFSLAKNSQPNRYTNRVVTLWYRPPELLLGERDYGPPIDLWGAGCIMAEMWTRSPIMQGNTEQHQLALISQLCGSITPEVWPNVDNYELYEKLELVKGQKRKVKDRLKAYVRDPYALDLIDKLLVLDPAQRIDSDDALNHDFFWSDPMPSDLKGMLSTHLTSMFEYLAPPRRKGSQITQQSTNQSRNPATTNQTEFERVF

GI50 (VCaP cells) [nM] | Kd (androgen receptor) [nM] | Kd (CDK9) [nM] | Compound | GI50 [1] [nM] | GI50 [2] [nM] | GI50 [3] [nM] | GI50 [4] [nM]
< 100 | < 50 |  | CCc1cnn2c(NCc3ccc(OCCCN4CCN(CCCOC5CCN(c6ncc(C(=O)N[C@H]7C(C)(C)[C@H](Oc8ccc(C#N)c(Cl)c8)C7(C)C)cn6)CC5)CC4)nc3)cc(N3CCCC[C@H]3CCO)nc12 [Compound I-11] | 100 to 1000 | < 100 |  | 
 |  |  | CCc1cnn2c(NCc3ccc(OCCOCCOCCN(C)c4ncc(C(=O)N[C@H]5C(C)(C)[C@H](Oc6ccc(C#N)c(Cl)c6)C5(C)C)cn4)nc3)cc(N3CCCC[C@H]3CCO)nc12 [Compound I-2, N-((1r,3r)-3-(3-chloro-4-cyanophenoxy)-2,2,4,4-tetra-methylcyclobutyl)-2-((2-(2-(2-((5-(((3-ethyl-5-((S)-2-(2-hydroxyethyl)piperidin-1-yl)pyrazolo[1,5-a]pyrimidin-7-yl)amino)methyl)pyridin-2-yl)oxy)ethoxy)ethoxy)ethyl)(methyl)amino)pyrimidine-5-carboxamide] | 100 to 1000 | 100 to 1000 | < 500 | < 500
 | < 50 |  | CCc1cnn2c(NCc3ccc(OCCCN4CCN(CCCN(C)c5ncc(C(=O)N[C@H]6C(C)(C)[C@H](Oc7ccc(C#N)c(Cl)c7)C6(C)C)cn5)CC4)nc3)cc(N3CCCC[C@H]3CCO)nc12 [Compound I-6, N-((1r,3r)-3-(3-chloro-4-cyanophenoxy)-2,2,4,4-tetramethylcyclobutyl)-2-((3-(4-(3-((5-(((3-ethyl-5-((S)-2-(2-hydroxyethyl)piperidin-1-yl)pyrazolo[1,5-a]pyrimidin-7-yl)amino)methyl)pyridin-2-yl)oxy)propyl)piperazin-1-yl)propyl)(methyl)amino)pyrimidine-5-carboxamide] | 100 to 1000 | < 100 |  | 
 | < 50 | > 2500 | CCc1cnn2c(N(C)Cc3ccc(OCCOCCOCCOC4CCN(c5ncc(C(=O)N[C@H]6C(C)(C)[C@H](Oc7ccc(C#N)c(Cl)c7)C6(C)C)cn5)CC4)nc3)cc(N3CCCC[C@H]3CCO)nc12 [Compound I-25] | > 3500 | > 3500 |  | 
 | > 2500 | > 2500 | CCc1cnn2c(NCc3ccc(OCCCCCCCCOC4CCN(c5ncc(C(=O)N[C@H]6C(C)(C)[C@H](Oc7ccc(C#N)c(Cl)c7)C6(C)C)cn5)CC4)nc3)cc(N3CCCC[C@H]3CCO)nc12 [Compound I-31] | > 3500 | > 3500 |  | 
100 to 1000 | < 50 |  | CCc1cnn2c(NCc3ccc(OCCOCCN(C)C45CC(N(C)c6ncc(C(=O)N[C@H]7C(C)(C)[C@H](Oc8ccc(C#N)c(Cl)c8)C7(C)C)cn6)(C4)C5)nc3)cc(N3CCCC[C@H]3CCO)nc12 [Compound I-83] | < 100 | < 100 |  | 
100 to 1000 | 500 to 2500 |  | CCc1cnn2c(NCc3ccc(OCCCN4CCN(CC5CCN(c6cnc(C(=O)N[C@H]7C(C)(C)[C@H](Oc8ccc(C#N)c(Cl)c8)C7(C)C)nc6)CC5)CC4)nc3)cc(N3CCCC[C@@H]3CCO)nc12 [Compound I-58, N-((1r,3r)-3-(3-chloro-4-cyanophenoxy)-2,2,4,4-tetramethylcyclobutyl)-5-(4-((4-(3-((5-(((3-ethyl-5-((R)-2-(2-hydroxyethyl)piperidin-1-yl)pyrazolo[1,5-a]pyrimidin-7-yl)amino)methyl)pyridin-2-yl)oxy)propyl)piperazin-1-yl)methyl)piperidin-1-yl)pyrimidine-2-carboxamide] | < 100 | 100 to 1000 |  | 
 | < 50 | > 2500 | CCc1cnn2c(N(C)Cc3ccc(OCCOCCOCCOCCOCCN(C)c4ncc(C(=O)N[C@H]5C(C)(C)[C@H](Oc6ccc(C#N)c(Cl)c6)C5(C)C)cn4)nc3)cc(N3CCCC[C@H]3CCO)nc12 [Compound I-12] | > 3500 | > 3500 |  | 
